In the test the target is KRasG12C (M1-K169, biotinylated on the N-terminus) (Homo sapiens (Human), UniProt P01116, G12C). Kind of test: Covalent competition assay: scintillation proximity assay (SPA) quantifying covalent modification of KRASG12C. The test is classed as binding. The conditions noted are these: competition with radiolabeled covalent probe (Compound B/Compound A), 2 hours incubation, 10 nM KRasG12C. The method, boiled down:
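Test compounds compete with a radiolabeled covalent probe for modification of N-terminally biotinylated KRasG12C(M1-K169):GDP, final 10 nM protein, 25 nM radio-ligand, 475 nM unlabelled ligand, 2 h with agitation in 20 mM Tris-HCl pH 7.5, 150 mM NaCl, 0.1 mM MgCl2, 0.01% Tween-20.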
Turning to `C=CC(=O)N1CC2(CC(n3nc(N4CCC(N(CC)C5COC5)CC4(C)C)c(-c4c(Cl)c(Cl)cc5[nH]ncc45)c3C)C2)C1` (single isomer, unassigned) [Example 61b, 1-(6-(4-(5,6-dichloro-1H-indazol-4-yl)-3-(4-(ethyl(oxetan-3-yl)amino)-2,2-dimethylpiperidin-1-yl)-5-methyl-1H-pyrazol-1-yl)-2-azaspiro[3.3]heptan-2-yl)prop-2-en-1-one], the concentration for half-maximal inhibition (IC50) came to 6 nM.
Take `C=CC(=O)N1CC2(CC(n3nc(N4CCC(N5CCOCC5)CC45CCC5)c(-c4c(Cl)c(C)cc5[nH]ncc45)c3C)C2)C1` (single isomer, unassigned) [Example 63a, 1-(6-(4-(5-chloro-6-methyl-1H-indazol-4-yl)-5-methyl-3-(8-morpholino-5-azaspiro[3.5]nonan-5-yl)-1H-pyrazol-1-yl)-2-azaspiro[3.3]heptan-2-yl)prop-2-en-1-one]: the IC50 worked out at 10 nM.
In the case of `C=CC(=O)N1CC2(CC(n3nc(N4CCC(N5CCOCC5)CC45CCC5)c(-c4c(Cl)c(C)cc5[nH]ncc45)c3C)C2)C1` (single isomer, unassigned) [Example 63b, 1-(6-(4-(5-chloro-6-methyl-1H-indazol-4-yl)-5-methyl-3-(8-morpholino-5-azaspiro[3.5]nonan-5-yl)-1H-pyrazol-1-yl)-2-azaspiro[3.3]heptan-2-yl)prop-2-en-1-one], the IC50 amounted to 3100 nM.
Turning to `C=CC(=O)N1CC2(CC(n3nc(N4CC(=O)N(C)CC45CCC5)c(-c4c(Cl)c(C)cc5[nH]ncc45)c3C)C2)C1` (single isomer, unassigned) [Example 65a, 5-(1-(2-acryloyl-2-azaspiro[3.3]heptan-6-yl)-4-(5-chloro-6-methyl-1H-indazol-4-yl)-5-methyl-1H-pyrazol-3-yl)-8-methyl-5,8-diazaspiro[3.5]nonan-7-one], the IC50 is more than 5000 nM.
Regarding `C=CC(=O)N1CC2(CC(n3nc(N4CC(=O)N(C)CC45CCC5)c(-c4c(Cl)c(C)cc5[nH]ncc45)c3C)C2)C1` (single isomer, unassigned) [Example 65b, 5-(1-(2-acryloyl-2-azaspiro[3.3]heptan-6-yl)-4-(5-chloro-6-methyl-1H-indazol-4-yl)-5-methyl-1H-pyrazol-3-yl)-8-methyl-5,8-diazaspiro[3.5]nonan-7-one], the 50% inhibitory concentration (IC50) is 212 nM.
In the case of `C=CC(=O)N1CC2(CC(n3nc(N4CCCCC45CN(C(C)=O)C5)c(-c4c(Cl)c(C)cc5[nH]ncc45)c3C)C2)C1` (single isomer, unassigned) [Example 66a, 1-(6-(3-(2-acetyl-2,5-diazaspiro[3.5]nonan-5-yl)-4-(5-chloro-6-methyl-1H-indazol-4-yl)-5-methyl-1H-pyrazol-1-yl)-2-azaspiro[3.3]heptan-2-yl)prop-2-en-1-one], the IC50 is more than 50000 nM.
Consider `C=CC(=O)N1CC2(CC(n3nc(N4CCCCC45CN(C(C)=O)C5)c(-c4c(Cl)c(C)cc5[nH]ncc45)c3C)C2)C1` (single isomer, unassigned) [Example 66b, 1-(6-(3-(2-acetyl-2,5-diazaspiro[3.5]nonan-5-yl)-4-(5-chloro-6-methyl-1H-indazol-4-yl)-5-methyl-1H-pyrazol-1-yl)-2-azaspiro[3.3]heptan-2-yl)prop-2-en-1-one], for which the IC50 was determined as 2200 nM.
Turning to `C=CC(=O)N1CC2(CC(n3nc(N4CCN(C5COC5)CC4(C)C)c(-c4c(Cl)c(C)cc5[nH]ncc45)c3C)C2)C1` (single isomer, unassigned) [Example 67a, 1-(6-(4-(5-chloro-6-methyl-1H-indazol-4-yl)-3-(2,2-dimethyl-4-(oxetan-3-yl)piperazin-1-yl)-5-methyl-1H-pyrazol-1-yl)-2-azaspiro[3.3]heptan-2-yl)prop-2-en-1-one], the half-maximal inhibitory concentration (IC50) was more than 50000 nM.
With `C=CC(=O)N1CC2(CC(n3nc(N4CCN(C5COC5)CC4(C)C)c(-c4c(Cl)c(C)cc5[nH]ncc45)c3C)C2)C1` (single isomer, unassigned) [Example 67b, 1-(6-(4-(5-chloro-6-methyl-1H-indazol-4-yl)-3-(2,2-dimethyl-4-(oxetan-3-yl)piperazin-1-yl)-5-methyl-1H-pyrazol-1-yl)-2-azaspiro[3.3]heptan-2-yl)prop-2-en-1-one], the IC50 turned out to be 38 nM.
`C=CC(=O)N1CC2(CC(n3nc(N4CCN(CC(F)(F)F)CC4(C)C)c(-c4c(Cl)c(C)cc5[nH]ncc45)c3C)C2)C1` (single isomer, unassigned) [Example 68a, 1-(6-(4-(5-chloro-6-methyl-1H-indazol-4-yl)-3-(2,2-dimethyl-4-(2,2,2-trifluoroethyl)piperazin-1-yl)-5-methyl-1H-pyrazol-1-yl)-2-azaspiro[3.3]heptan-2-yl)prop-2-en-1-one]: the IC50 was more than 15000 nM.
Turning to `C=CC(=O)N1CC2(CC(n3nc(N4CCN(CC(F)(F)F)CC4(C)C)c(-c4c(Cl)c(C)cc5[nH]ncc45)c3C)C2)C1` (single isomer, unassigned) [Example 68b, 1-(6-(4-(5-chloro-6-methyl-1H-indazol-4-yl)-3-(2,2-dimethyl-4-(2,2,2-trifluoroethyl)piperazin-1-yl)-5-methyl-1H-pyrazol-1-yl)-2-azaspiro[3.3]heptan-2-yl)prop-2-en-1-one], the 50% inhibitory concentration (IC50) turned out to be 239 nM.
Take `C=CC(=O)N1CC2(CC(n3nc(N4CC[C@@H](N(C)C(C)=O)CC4(C)C)c(-c4c(Cl)c(C)cc5[nH]ncc45)c3C)C2)C1` (single isomer, unassigned) [Example 69a]: the IC50 was 4400 nM.
For `C=CC(=O)N1CC2(CC(n3nc(N4CC[C@@H](N(C)C(C)=O)CC4(C)C)c(-c4c(Cl)c(C)cc5[nH]ncc45)c3C)C2)C1` (single isomer, unassigned) [Example 69b], the IC50 is 15 nM.
Consider `C=CC(=O)N1CC2(CC(n3nc(N4CC[C@H](N(C)C(C)=O)CC4(C)C)c(-c4c(Cl)c(C)cc5[nH]ncc45)c3C)C2)C1` (single isomer, unassigned) [Example 70a], for which the concentration for half-maximal inhibition (IC50) was determined as 287 nM.
Regarding `C=CC(=O)N1CC2(CC(n3nc(N4CC[C@H](N(C)C(C)=O)CC4(C)C)c(-c4c(Cl)c(C)cc5[nH]ncc45)c3C)C2)C1` (single isomer, unassigned) [Example 70b], the 50% inhibitory concentration (IC50) is 1000 nM.
`C=CC(=O)N1CC2(CC(n3nc(N4CCN(CCOC)CC45CCC5)c(-c4c(Cl)c(C)cc5[nH]ncc45)c3C)C2)C1` (single isomer, unassigned) [Example 71a, 1-(6-(4-(5-chloro-6-methyl-1H-indazol-4-yl)-3-(8-(2-methoxyethyl)-5,8-diazaspiro[3.5]nonan-5-yl)-5-methyl-1H-pyrazol-1-yl)-2-azaspiro[3.3]heptan-2-yl)prop-2-en-1-one]: the IC50 was found to be 1200 nM.
The same measure for `C=CC(=O)N1CC2(CC(n3nc(N4CCN(CCOC)CC45CCC5)c(-c4c(Cl)c(C)cc5[nH]ncc45)c3C)C2)C1` (single isomer, unassigned) [Example 71b, 1-(6-(4-(5-chloro-6-methyl-1H-indazol-4-yl)-3-(8-(2-methoxyethyl)-5,8-diazaspiro[3.5]nonan-5-yl)-5-methyl-1H-pyrazol-1-yl)-2-azaspiro[3.3]heptan-2-yl)prop-2-en-1-one]: 25 nM.
Under `C=CC(=O)N1CC2(CC(n3nc(N4CCN(C5COC5)CC45CCC5)c(-c4c(Cl)c(Cl)cc5[nH]ncc45)c3C)C2)C1` (single isomer, unassigned) [Example 72a] stands 3100 nM; under `C=CC(=O)N1CC2(CC(n3nc(N4CCN(C5COC5)CC45CCC5)c(-c4c(Cl)c(Cl)cc5[nH]ncc45)c3C)C2)C1` (single isomer, unassigned) [Example 72b], 7 nM; under `C=CC(=O)N1CC2(CC(n3nc(N4CCN(C5COC5)CC4(C)C)c(-c4c(Cl)c(Cl)cc5[nH]ncc45)c3C)C2)C1` (single isomer, unassigned) [Example 73a, 1-(6-(4-(5,6-dichloro-1H-indazol-4-yl)-3-(2,2-dimethyl-4-(oxetan-3-yl)piperazin-1-yl)-5-methyl-1H-pyrazol-1-yl)-2-azaspiro[3.3]heptan-2-yl)prop-2-en-1-one], more than 5000 nM.
In the case of `C=CC(=O)N1CC2(CC(n3nc(N4CCN(C5COC5)CC4(C)C)c(-c4c(Cl)c(Cl)cc5[nH]ncc45)c3C)C2)C1` (single isomer, unassigned) [Example 73b, 1-(6-(4-(5,6-dichloro-1H-indazol-4-yl)-3-(2,2-dimethyl-4-(oxetan-3-yl)piperazin-1-yl)-5-methyl-1H-pyrazol-1-yl)-2-azaspiro[3.3]heptan-2-yl)prop-2-en-1-one], the IC50 is 15 nM.
Regarding `C=CC(=O)N1CC2(CC(n3nc(N4CCC(N5C6CCC5COC6)CC4(C)C)c(-c4c(Cl)c(C)cc5[nH]ncc45)c3C)C2)C1` (single isomer, unassigned) [Example 74b], the IC50 came out at 26 nM.
For `C=CC(=O)N1CC2(CC(n3nc(N4CCC(N5C6CCC5COC6)CC4(C)C)c(-c4c(Cl)c(C)cc5[nH]ncc45)c3C)C2)C1` (single isomer, unassigned) [Example 75b], the 50% inhibitory concentration (IC50) turned out to be 228 nM.
`C=CC(=O)N1CC2(CC(n3nc(N4CCN(CCOC)CC45CCC5)c(-c4c(Cl)c(Cl)cc5[nH]ncc45)c3C)C2)C1` (single isomer, unassigned) [Example 76a, 1-(6-(4-(5,6-dichloro-1H-indazol-4-yl)-3-(8-(2-methoxyethyl)-5,8-diazaspiro[3.5]nonan-5-yl)-5-methyl-1H-pyrazol-1-yl)-2-azaspiro[3.3]heptan-2-yl)prop-2-en-1-one]: the IC50 came out at 351 nM.
Take `C=CC(=O)N1CC2(CC(n3nc(N4CCN(CCOC)CC45CCC5)c(-c4c(Cl)c(Cl)cc5[nH]ncc45)c3C)C2)C1` (single isomer, unassigned) [Example 76b, 1-(6-(4-(5,6-dichloro-1H-indazol-4-yl)-3-(8-(2-methoxyethyl)-5,8-diazaspiro[3.5]nonan-5-yl)-5-methyl-1H-pyrazol-1-yl)-2-azaspiro[3.3]heptan-2-yl)prop-2-en-1-one]: the IC50 was 10 nM.

In general, IC50 refers to the point on the concentration scale where inhibition reaches its midpoint.

Values taken from patent publication US20240317721A1, “PYRAZOLYL DERIVATIVES AS INHIBITORS OF THE KRAS MUTANT PROTEIN” (NOVARTIS AG, priority 2021, published 2024).
